Experimental data published in patent publication US10703971B2, “Chemiluminescent substrates” (Beckman Coulter, Inc., priority 2016, dated 2020).

How the values were obtained:
alkaline phosphatase [1] = test: Stability Test A: luminescence of the AP substrate formulation in a micro-titer plate after injection of AP; format: biochemical; details: 50% more of the named component added to a single lot of APS-5
Protocol: An aliquot (100 μL) of AP substrate formulation was added to a micro-titer plate well (8 replicates for each formulation). The plate was placed in a luminescence plate reader (Luminoskan, Labtech) and to each well was injected 20 μL of AP solution (2 ng/mL). Luminescence signal was read after 30 seconds and intergraded for 2 seconds.

alkaline phosphatase [2] = test: Alternative cationic aromatic compounds, Imax on Turner 20/20e luminometer; details: compound used as cationic aromatic compound (CAC) in the formulation
[3] = test system: Beckman Coulter System Check ALP; test: Stability of chemiluminescent compounds I in two buffer systems, signal RLU of samples stored at two temperatures; format: biochemical
Protocol: 3.25 mg/L Lucigenin, 10 mg/L Sodium Sulfite. The second was based on the present invention and included AMPD 0.1 M pH 9.70 containing 0.5 g/L STS, 1 g/L PEG (Mw=35,000), 3.25 mg/L Lucigenin, 10 mg/L Sodium Sulfite. Various chemiluminescent compounds I shown below were added to 200 mL aliquots of each buffer at 0.15 g/L.
Each formulation was split into ˜100 mL halves with one kept at ˜5° C. and the other kept at −30° C.
Material was tested periodically over two weeks measuring the relative change in signal RLU between the two storage conditions. Formulations were tested in 96-well plates by comparing samples at stored at two temperatures to reduce the variability associated with enzymes/temperature/day to day. The samples were incubated at 37° C. for 30 minutes on the instrument 20 uL of enzyme (prepared by mixing 1 mL of Beckman Coulter System Check ALP with 640 mL of the Sample Diluent Buffer) were injected into 200 uL of formulation. Kinetic signal was measured at ˜29 seconds after injection of ALP solution. 15-16 data points (wells) were measured for each Buffer/Temperature/Time point (Well A1 is excluded due to variation in injection volume).

Structure (SMILES) | I max RLU (Turner 20/20e luminometer with filter) (alkaline phosphatase [2]) [RLU] | also measured
CCCCCCCCCCCCOS(=O)(=O)[O-].[Na+] [SDS, sodium dodecyl sulfate] |  | Performance (alkaline phosphatase [1]): 70.5%
C[n+]1ccc2c(c1-c1c3c(cc[n+]1C)=CCCC=3)=CCCC=2 | 41 | 
O=S([O-])[O-].[Na+].[Na+] [Sodium Sulfite, sodium sulfite] |  | Performance (alkaline phosphatase [1]): 100.1%
C[n+]1c2ccccc2c(-c2c3ccccc3[n+](C)c3ccc(Cl)cc23)c2cc(Cl)ccc21 | 454 | 
CN1c2ccccc2C(=C(OP(=O)(O)O)Sc2ccccc2)c2ccccc21 [Compound 3] |  | Signal Loss at 30° C. (slope, % loss/Day) ([3]; 0.15 g/L compound in AMPD buffer system (AMPD 0.1 M pH 9.70, STS, PEG 35,000, lucigenin, sodium sulfite)): 0.53% loss/Day; Signal Loss at 30° C. (slope, % loss/Day) ([3]; 0.15 g/L compound in TRIS-Tween buffer system (Tris 0.3 M pH 9.35, SDS, Tween-20, lucigenin, sodium sulfite)): 0.61% loss/Day
C[n+]1c2ccccc2c(-c2c3ccccc3cc3ccccc23)c2cc(Cl)ccc21 | 1037 | 
C1=c2cc[n+]3c(c2=CCC1)-c1c2c(cc[n+]1CC3)=CCCC=2 | 500 | 
C[n+]1c2ccccc2c(-c2c3ccccc3[n+](C)c3ccc(Cl)cc23)c2ccccc21 | 1600 | 
